Test results taken from patent publication US20150118726A1, “Processes Using Antibiotic Alternatives In Bioethanol Production” (Buckman Laboratories International, Inc., priority 2010, published 2015).
Values belong to the molecule of their own block, whether it stands above or below them.

Legend:
[1] = Persistence of DBNPA under fermentation tank conditions; format: physicochemical; settings: under the conditions in the fermentation tank, based on laboratory work
Protocol: Under the conditions in the fermentation tank, DBNPA is expected to last intact only about 1-2 hours, based on laboratory work. The stillage, i.e., fermented unevaporated product (post “beer tank”) of distillation, is centrifuged, and dried (e.g., about 1 hour at about 250-300° F.), then the mixture is pumped over to a final tank where it is called the DDGS. DDGS is about ⅓ mass of the starting raw material for corn. The chemistry of DBNPA is not expected to endure and survive the centrifugation and heat of drying prior to entering distillers dried grains with solubles (DDGS) stage. In the corn-to-ethanol process, for example, DBNPA is expected to degrade to carbon dioxide and water vapor, and, as such, would have low environmental impact. […] The application of DBNPA avoids the use of antibiotics, which can remain stable throughout the process. The use of DBNPA makes the use of antibiotics unnecessary. The use of DBNPA is more economical since the cost of antibiotics (as the only treatment widely employed) can be relatively high and costly to the fermentation. […]

Lactobacillus fermentans = test: MRS broth test of biocide combinations (Kull synergism method); format: cell-based; settings: 25% MRS broth, 37° C., 24 hours
Protocol: Lactobacilli MRS broth (25% strength) was prepared and dispensed in 10 ml amounts into test tubes and autoclaved for 20 minutes at 121° C. The biocides were added to the test tubes in the desired concentrations, and then 100 microliters of an overnight broth of Lactobacillus fermentans were added to the respective test tubes and incubated at 37° C. for 24 hours.
QA/Qa+QB/Qb is less than 1.
Qa=Concentration of Compound A in parts per million, acting alone, which produced an endpoint; Qb=Concentration of Compound B in parts per million, acting alone, which produced an endpoint; QA=Concentration of Compound A in parts per million, in the mixture, which produced an endpoint; QB=Concentration of Compound B in parts per million, in the mixture, which produced an endpoint.
When the sum of QA/Qa and QB/Qb is greater than one, antagonism is indicated and when the sum is equal to one, additivity is indicated. When the sum of this value is less than one, synergism exists.

L. plantarum = test: Corn mash ethanol fermentation infected with L. plantarum, treated with nonoxidizing biocide; format: cell-based, Lactobacillus plantarum; settings: based on experimental results
Protocol: (§1) Experiments were conducted to evaluate the effectiveness of a nonoxidizing biocide as an antimicrobial agent for control of Lactobacillus infections in ethanol fermentation. The nonoxidizing biocide was BRONAM® 20 (20% 2,2-dibromo-3-nitrilopropionamide). The lactobacilli was L. plantarum. The yeast was Saccharomyces cereviseae. Corn mashes containing approximately 30% (w/w) dry solids were used.
For slurry preparation, the moisture of ground corn was determined gravimetrically using a moisture balance by measuring the mass loss that occurred upon drying. The amount of corn, deionized (DI) water, and enzyme needed to prepare 160 g of corn slurry at a total dry solids concentration of 30% (w/w) for each replicate was determined. […]
For fermentation, once the mash was cooled, the entire contents (approximately 160 g) of each Labomat beaker were transferred to a sterile 250-ml Erlenmeyer flask. The masses of the mash and flasks were recorded, and the mass of mash transferred to the fermentation flasks was calculated. […]
The L. plantarum culture was prepared for inoculation by growing throughout the day in 100-ml of MRS broth. […] The initial concentration of the bacteria was determined by plating serial dilutions of the culture on MRS agar containing cycloheximide and incubating at 32° C. for 2 days before counting colonies. […]

Saccharomyces cereviseae = test: Corn mash ethanol fermentation: effect of biocide on yeast / fermentation progress; format: cell-based, Saccharomyces cerevisiae
Protocol: as §1
A 0.2-g/ml suspension of yeast (Saccharomyces cerevisiae; Ethanol Red; Fermentis, Marcq-en-Baroeul, France) was prepared in a sterile 250-ml flask. This suspension was incubated and mixed for 20 minutes at 40° C. before inoculation into the fermentation flasks. Each fermentation flask was inoculated with 160 μl of the yeast suspension to attain an initial concentration of 10^7 yeast cells/ml. After the initial 1-hr incubation with bacteria, the flasks were inoculated with yeast and dosed with BRONAM® 20. […]
The mass of each flask was recorded after all additions were made, and the sanitized fermentation traps were reinserted into each flask. The mass of each flask with the trap in place was also recorded. […] The mass of each flask with the traps in place were measured periodically throughout fermentation to estimate the rate of fermentation (the mass of the fermentation flasks decreases when carbon dioxide is lost by bubbling out of the fermentation traps). […]

- time DBNPA lasts intact [1]: 1 to 2 h
Molecule: N#CC(Br)(Br)C(N)=O [2,2-dibromo-3-nitrilopropionamide]
- Qb, concentration of Compound B acting alone which produced an endpoint (Lactobacillus fermentans; Example 3): 100 ppm
- effect on bacteria (lactobacilli) (L. plantarum): kills the bacteria
- effect on yeast involved in fermentation (Saccharomyces cereviseae): does not kill the yeast

Molecule: O=[N+]([O-])C(Br)(CO)CO [2-bromo-2-nitropropane-1,3-diol]
- Qb, concentration of Compound B acting alone which produced an endpoint (Lactobacillus fermentans; Example 2): 50 ppm

Molecule: Nisin
- Qa, concentration of Compound A acting alone which produced an endpoint (Lactobacillus fermentans; Example 2): 1.0 ppm
- Qa, concentration of Compound A acting alone which produced an endpoint (Lactobacillus fermentans; Example 3): 1.0 ppm
